#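 Briefly, cells in 96-well plates were exposed to five compound concentrations for 48 h, and endpoints were estimated by linear interpolation. The concentration for 50% growth inhibition is given as GI50. The concentration for full growth arrest is given as TGI.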
# How the values were obtained:
# Assay in all cases: NCI anticancer screen, dose series, 48 h
# A549 NSCLC = system: A549 NSCLC
# MCF7 breast = system: MCF7 breast
# CCRF-CEM leukemia = system: CCRF-CEM leukemia
# SK-OV-3 ovarian = system: SK-OV-3 ovarian
# SF-539 CNS = system: SF-539 CNS
# ACHN renal = system: ACHN renal
# UO-31 renal = system: UO-31 renal
# HT29 colon = system: HT29 colon
# HL-60(TB) leukemia = system: HL-60(TB) leukemia
# IGROV1 ovarian = system: IGROV1 ovarian
# NCI-H226 lung = system: NCI-H226 lung
# KM12 colon = system: KM12 colon
# RPMI-8226 leukemia = system: RPMI-8226 leukemia
# HCT-116 colon = system: HCT-116 colon
# SNB-75 CNS = system: SNB-75 CNS
# HOP-92 NSCLC = system: HOP-92 NSCLC
# NCI-H522 lung = system: NCI-H522 lung
# SNB-19 CNS = system: SNB-19 CNS
# EKVX NSCLC = system: EKVX NSCLC
# MDA-MB-231 breast = system: MDA-MB-231 breast
# MALME-3M melanoma = system: MALME-3M melanoma
# HS 578T breast = system: HS 578T breast
# SF-268 CNS = system: SF-268 CNS
# T-47D breast = system: T-47D breast
# RXF 393 renal = system: RXF 393 renal
# SR leukemia = system: SR leukemia
# HOP-62 NSCLC = system: HOP-62 NSCLC
# SN12C renal = system: SN12C renal
# SK-MEL-2 melanoma = system: SK-MEL-2 melanoma
# OVCAR-5 ovarian = system: OVCAR-5 ovarian
# SK-MEL-5 melanoma = system: SK-MEL-5 melanoma
# M14 melanoma = system: M14 melanoma
# OVCAR-3 ovarian = system: OVCAR-3 ovarian
# CAKI-1 renal = system: CAKI-1 renal
# NCI-H460 lung = system: NCI-H460 lung
# UACC-62 melanoma = system: UACC-62 melanoma
# TK-10 renal = system: TK-10 renal
# DU-145 prostate = system: DU-145 prostate
# K-562 leukemia = system: K-562 leukemia
# LOX IMVI melanoma = system: LOX IMVI melanoma
# OVCAR-4 ovarian = system: OVCAR-4 ovarian
# A498 renal = system: A498 renal
# UACC-257 melanoma = system: UACC-257 melanoma
# PC-3 prostate = system: PC-3 prostate
# MOLT-4 leukemia = system: MOLT-4 leukemia
# SW-620 colon = system: SW-620 colon
# HCT-15 colon = system: HCT-15 colon
# MDA-MB-435 = system: MDA-MB-435
# COLO 205 colon = system: COLO 205 colon
# OVCAR-8 ovarian = system: OVCAR-8 ovarian
# U251 CNS = system: U251 CNS
# SF-295 CNS = system: SF-295 CNS
# HCC-2998 colon = system: HCC-2998 colon
# NCI/ADR-RES ovarian = system: NCI/ADR-RES ovarian
# SK-MEL-28 melanoma = system: SK-MEL-28 melanoma
# 786-0 renal = system: 786-0 renal
# NCI-H23 lung = system: NCI-H23 lung
# BT-549 breast = system: BT-549 breast
smiles,measurement,setting,value
CCCCCn1ncc(-c2c(O)c(O)cc3c(O)c(-c4c(C)cc5c(-c6cnn(CCCCC)n6)c(O)c(O)cc5c4O)c(C)cc23)n1,GI50,A549 NSCLC,117 nM
same,TGI,A549 NSCLC,4470 nM
same,GI50,MCF7 breast,87.4 nM
same,TGI,MCF7 breast,4240 nM
same,GI50,CCRF-CEM leukemia,92.7 nM
same,TGI,CCRF-CEM leukemia,6300 nM
same,GI50,SK-OV-3 ovarian,142 nM
same,TGI,SK-OV-3 ovarian,2640 nM
same,GI50,SF-539 CNS,135 nM
same,TGI,SF-539 CNS,4060 nM
same,GI50,ACHN renal,128 nM
same,TGI,ACHN renal,4270 nM
same,GI50,UO-31 renal,180 nM
same,TGI,UO-31 renal,1840 nM
same,GI50,HT29 colon,120 nM
same,TGI,HT29 colon,3450 nM
same,GI50,HL-60(TB) leukemia,124 nM
same,TGI,HL-60(TB) leukemia,3570 nM
same,GI50,IGROV1 ovarian,182 nM
same,TGI,IGROV1 ovarian,4750 nM
same,GI50,NCI-H226 lung,141 nM
same,TGI,NCI-H226 lung,2800 nM
same,GI50,KM12 colon,101 nM
same,TGI,KM12 colon,5250 nM
same,GI50,RPMI-8226 leukemia,109 nM
same,TGI,RPMI-8226 leukemia,4900 nM
same,GI50,HCT-116 colon,26.2 nM
same,TGI,HCT-116 colon,4070 nM
same,GI50,SNB-75 CNS,165 nM
same,TGI,SNB-75 CNS,3840 nM
same,GI50,HOP-92 NSCLC,72.3 nM
same,TGI,HOP-92 NSCLC,242 nM
same,GI50,NCI-H522 lung,98.4 nM
same,TGI,NCI-H522 lung,1070 nM
same,GI50,SNB-19 CNS,115 nM
same,TGI,SNB-19 CNS,5260 nM
same,GI50,EKVX NSCLC,177 nM
same,TGI,EKVX NSCLC,4610 nM
same,GI50,MDA-MB-231 breast,182 nM
same,TGI,MDA-MB-231 breast,5670 nM
same,GI50,MALME-3M melanoma,138 nM
same,TGI,MALME-3M melanoma,4730 nM
same,GI50,HS 578T breast,152 nM
same,TGI,HS 578T breast,8870 nM
same,GI50,SF-268 CNS,147 nM
same,TGI,SF-268 CNS,4270 nM
same,GI50,T-47D breast,62.7 nM
same,TGI,T-47D breast,1420 nM
same,GI50,RXF 393 renal,112 nM
same,TGI,RXF 393 renal,6450 nM
same,GI50,SR leukemia,201 nM
same,TGI,SR leukemia,7270 nM
same,GI50,HOP-62 NSCLC,140 nM
same,TGI,HOP-62 NSCLC,2750 nM
same,GI50,SN12C renal,124 nM
same,TGI,SN12C renal,5750 nM
same,GI50,SK-MEL-2 melanoma,147 nM
same,TGI,SK-MEL-2 melanoma,6810 nM
same,GI50,OVCAR-5 ovarian,222 nM
same,TGI,OVCAR-5 ovarian,6570 nM
same,GI50,SK-MEL-5 melanoma,388 nM
same,TGI,SK-MEL-5 melanoma,2310 nM
same,GI50,M14 melanoma,182 nM
same,TGI,M14 melanoma,2890 nM
same,GI50,OVCAR-3 ovarian,91.9 nM
same,TGI,OVCAR-3 ovarian,4620 nM
same,GI50,CAKI-1 renal,156 nM
same,TGI,CAKI-1 renal,4240 nM
same,GI50,NCI-H460 lung,25.8 nM
same,TGI,NCI-H460 lung,465 nM
same,GI50,UACC-62 melanoma,145 nM
same,TGI,UACC-62 melanoma,1270 nM
same,GI50,TK-10 renal,126 nM
same,TGI,TK-10 renal,5050 nM
same,GI50,DU-145 prostate,64.7 nM
same,TGI,DU-145 prostate,6020 nM
same,GI50,K-562 leukemia,83.7 nM
same,TGI,K-562 leukemia,8440 nM
same,GI50,LOX IMVI melanoma,90.8 nM
same,TGI,LOX IMVI melanoma,1160 nM
same,GI50,OVCAR-4 ovarian,176 nM
same,TGI,OVCAR-4 ovarian,4490 nM
same,GI50,A498 renal,3990 nM
same,TGI,A498 renal,8250 nM
same,GI50,UACC-257 melanoma,792 nM
same,TGI,UACC-257 melanoma,6120 nM
same,GI50,PC-3 prostate,147 nM
same,TGI,PC-3 prostate,2530 nM
same,GI50,MOLT-4 leukemia,89.8 nM
same,TGI,MOLT-4 leukemia,8280 nM
same,GI50,SW-620 colon,117 nM
same,TGI,SW-620 colon,6260 nM
same,GI50,HCT-15 colon,97.6 nM
same,TGI,HCT-15 colon,5010 nM
same,GI50,MDA-MB-435,109 nM
same,TGI,MDA-MB-435,5020 nM
same,GI50,COLO 205 colon,595 nM
same,TGI,COLO 205 colon,3220 nM
same,GI50,OVCAR-8 ovarian,125 nM
same,TGI,OVCAR-8 ovarian,3200 nM
same,GI50,U251 CNS,35.1 nM
same,TGI,U251 CNS,1890 nM
same,GI50,SF-295 CNS,108 nM
same,TGI,SF-295 CNS,4600 nM
same,GI50,HCC-2998 colon,471 nM
same,TGI,HCC-2998 colon,4240 nM
same,GI50,NCI/ADR-RES ovarian,903 nM
same,TGI,NCI/ADR-RES ovarian,5320 nM
same,GI50,SK-MEL-28 melanoma,306 nM
same,TGI,SK-MEL-28 melanoma,6360 nM
same,GI50,786-0 renal,171 nM
same,TGI,786-0 renal,2610 nM
same,GI50,NCI-H23 lung,78 nM
same,TGI,NCI-H23 lung,3660 nM
same,GI50,BT-549 breast,91.3 nM
same,TGI,BT-549 breast,5090 nM

# From PubChem BioAssay (NCI)
